# Measured values reported in patent US20250163104A1, “MACROCYCLIC IMMUNOMODULATORS” (priority 2021, published 2025).
# pIC50: −log10 of the molar value. Where a SMILES comes first, the peptide text is derived from it. Bridges are numbered along the chain shown (N, C = ends). [ ]: non-standard residue; d: D form. The star is where a group is joined. ξ: configuration not given here. Bip = N[C@@H](Cc1ccc(-c2ccccc2)cc1)C(=O)O; Phe(3-Cl) = N[C@@H](Cc1cccc(Cl)c1)C(=O)O; Phe(3-F) = N[C@@H](Cc1cccc(F)c1)C(=O)O; Phe(3-Me) = Cc1cccc(C[C@H](N)C(=O)O)c1; Gly(octyl) = CCCCCCCC[C@H](N)C(=O)O; mTyr = N[C@@H](Cc1cccc(O)c1)C(=O)O; 3Pal = N[C@@H](Cc1cccnc1)C(=O)O; 4Pal = N[C@@H](Cc1ccncc1)C(=O)O; Cha = N[C@@H](CC1CCCCC1)C(=O)O; Cit = NC(=O)NCCC[C@H](N)C(=O)O; Ile(3ξ) = CCC(C)[C@H](N)C(=O)O; Thr(3ξ) = CC(O)[C@H](N)C(=O)O; Carboxymethyl = O=C(O)C*; Orn = NCCC[C@H](N)C(=O)O; Dab = NCC[C@H](N)C(=O)O; Dap = NC[C@H](N)C(=O)O; Propargyl = C#CC*; Sar = CNCC(=O)O
# Target: T1, human PD-1 / PD-L1-Ig binding on Jurkat cell line over-expressing human PD-1 (Jurkat-PD-1) (Homo sapiens, UniProt Q15116)
# T1 construct: expressed in transfected cells; host or cells: Jurkat
# Assay: Jurkat-PD-1 Cell Binding High-Content Screening Assay (CBA)
# Format: cell-based
# Settings: Jurkat HPD1_PDL1 IC50, Jurkat-PD-1 cells, PE-labeled PD-L1-Ig 20 nM final
# In short: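 Jurkat cells over-expressing human PD-1, in DMEM/10% FCS, pre-incubated with compound 2 h at 37° C. PE-labeled human PD-L1-Ig (20 nM final) added for 1 h; cells fixed in paraformaldehyde with Hoechst 33342 nuclear stain, washed, and bound fluorescence quantified by high-content imaging.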
# T1 sequence (Q15116 25-288): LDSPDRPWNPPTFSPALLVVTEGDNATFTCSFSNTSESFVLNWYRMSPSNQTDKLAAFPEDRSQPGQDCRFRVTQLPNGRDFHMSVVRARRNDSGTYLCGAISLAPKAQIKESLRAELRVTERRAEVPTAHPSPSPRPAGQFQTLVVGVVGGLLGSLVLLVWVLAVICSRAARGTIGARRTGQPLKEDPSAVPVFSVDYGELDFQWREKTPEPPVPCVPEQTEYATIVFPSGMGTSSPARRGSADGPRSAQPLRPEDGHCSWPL
row,SMILES,pIC50
1,CC(C)C[C@H]1NC(=O)[C@H](CCCN)NC(=O)[C@H](CCCCN)NC(=O)[C@H](Cc2ccc(-c3ccccc3)cc2)NC(=O)[C@H](C(C)C)NC(=O)[C@H](Cc2c[nH]c3ccccc23)NC(=O)[C@H](CC(=O)O)NC(=O)[C@H](Cc2ccc(OCC(=O)O)cc2)NC(=O)[C@H](Cc2ccncc2)NC(=O)CSC[C@@H](C(=O)N[C@@H](C)C(N)=O)NC(=O)[C@H]([C@@H](C)O)NC(=O)[C@H](C(C)C)NC(=O)[C@H](CC2CCCCC2)NC(=O)[C@H](CCN)NC1=O [Compound 1373],7.95
2,CC[C@H](C)[C@@H]1NC(=O)[C@H](Cc2ccc(-c3ccccc3)cc2)NC(=O)[C@H](C(C)C)NC(=O)[C@H](Cc2c[nH]c3ccccc23)NC(=O)[C@H](CC(=O)O)NC(=O)[C@H](Cc2ccc(OCC(=O)O)cc2)NC(=O)[C@H](Cc2ccc(OCC(=O)O)cc2)NC(=O)CSC[C@@H](C(=O)N[C@@H](C)C(N)=O)NC(=O)[C@H]([C@@H](C)O)NC(=O)[C@H](C(C)C)NC(=O)[C@H](CC2CCCCC2)NC(=O)[C@H](Cc2c[nH]cn2)NC(=O)[C@@H](CC(C)C)NC(=O)[C@H](CCCN)NC1=O [Compound 1592],7.50

# Same assay, conditions: Jurkat-PD-1 cells, PE-labeled PD-L1-Ig 20 nM final; read-out: Jurkat HPD1_PDL1 IC50
row,SMILES,pIC50
1,CC(C)C[C@@H]1NC(=O)[C@H](Cc2c[nH]c3ccccc23)NC(=O)[C@H](CC(=O)O)NC(=O)[C@H](Cc2ccc(O)cc2)NC(=O)[C@H](Cc2ccccc2)NC(=O)CSC[C@@H](C(=O)NCC(N)=O)NC(=O)[C@H]([C@@H](C)O)NC(=O)[C@H](C(C)C)NC(=O)[C@H](CC(C)C)NC(=O)[C@H](CCN)NC(=O)[C@@H](C)NC(=O)[C@H](CN)NC(=O)[C@H](C(C)C)NC(=O)[C@H](Cc2ccc(-c3ccccc3)cc2)NC1=O [Compound 1078] ({CH2CO}-FYDWL[Bip]V[Dap][dA][Dab]LVTCG-NH2; thioether N-14),7.40
2,C#CCOc1ccc(C[C@@H]2NC(=O)[C@H](C(C)C)NC(=O)[C@H](CC3CCCCC3)NC(=O)[C@H](CCN)NC(=O)[C@@H](CC(C)C)NC(=O)[C@H](CCCN)NC(=O)[C@H](Cc3ccc(OCC(=O)O)cc3)NC(=O)[C@H](Cc3ccc(-c4ccccc4)cc3)NC(=O)[C@H](Cc3ccc(OCC(=O)O)cc3)NC(=O)[C@H](Cc3cccc(C)c3)NC(=O)[C@H](CC(=O)O)NC(=O)[C@H](Cc3ccc(OCC(=O)O)cc3)NC(=O)[C@H](CN)NC(=O)CSC[C@@H](C(=O)N[C@@H](CCN)C(N)=O)NC2=O)cc1 [Compound 1816] ({CH2CO}-[Dap]Y(Carboxymethyl)D[Phe(3-Me)]Y(Carboxymethyl)[Bip]Y(Carboxymethyl)[Orn][dL][Dab][Cha]VY(Propargyl)C[Dab]-NH2; thioether N-14),7.92
3,CCNC(=O)[C@H](CCN)NC(=O)[C@@H]1CSCC(=O)N[C@@H](CN)C(=O)N[C@@H](Cc2ccc(OCC(=O)O)cc2)C(=O)N[C@@H](CC(=O)O)C(=O)N[C@@H](Cc2cccc(O)c2)C(=O)N[C@@H](C(C)C)C(=O)N[C@@H](Cc2ccc(-c3ccccc3)cc2)C(=O)N[C@@H](Cc2ccc(O)cc2)C(=O)N[C@@H](CCCN)C(=O)N[C@H](CC(C)C)C(=O)N[C@@H](CCN)C(=O)N[C@@H](CC2CCCCC2)C(=O)N[C@@H](C(C)C)C(=O)N[C@@H](CCCN)C(=O)N1 [Compound 2046] ({CH2CO}-[Dap]Y(Carboxymethyl)D[mTyr]V[Bip]Y[Orn][dL][Dab][Cha]V[Orn]C[Dab]-NHEt; thioether N-14),7.78
4,CC(C)C[C@H]1NC(=O)[C@H](CCCN)NC(=O)[C@H](CCC(=O)O)NC(=O)[C@H](Cc2ccc(-c3ccccc3)cc2)NC(=O)[C@H](C(C)C)NC(=O)[C@H](Cc2cccc(Cl)c2)NC(=O)[C@H](CC(=O)O)NC(=O)[C@H](Cc2ccncc2)NC(=O)[C@H](CN)NC(=O)CSC[C@@H](C(=O)N[C@@H](C)C(N)=O)NC(=O)[C@H]([C@@H](C)O)NC(=O)[C@H](C(C)C)NC(=O)[C@H](CC2CCCCC2)NC(=O)[C@H](CCN)NC1=O [Compound 1496] ({CH2CO}-[Dap][4Pal]D[Phe(3-Cl)]V[Bip]E[Orn][dL][Dab][Cha]VTCA-NH2; thioether N-14),7.75
5,CC(C)C[C@H]1NC(=O)[C@H](CCCN)NC(=O)[C@H](CCCNC(N)=O)NC(=O)[C@H](Cc2ccc(-c3ccccc3)cc2)NC(=O)[C@H](C(C)C)NC(=O)[C@H](Cc2c[nH]c3ccccc23)NC(=O)[C@H](CC(=O)O)NC(=O)[C@H](Cc2ccc(O)cc2)NC(=O)[C@H](CC(N)=O)NC(=O)CSC[C@@H](C(=O)N[C@@H](C)C(N)=O)NC(=O)[C@H]([C@@H](C)O)NC(=O)[C@H](C(C)C)NC(=O)[C@H](CC2CCCCC2)NC(=O)[C@H](CCCNC(=N)N)NC1=O [Compound 1155] ({CH2CO}-NYDWV[Bip][Cit][Orn][dL]R[Cha]VTCA-NH2; thioether N-14),8.11
6,CCC(C)[C@@H]1NC(=O)[C@H](Cc2ccc(-c3ccccc3)cc2)NC(=O)[C@H](C(C)C)NC(=O)[C@H](Cc2cc(C)ccc2C)NC(=O)[C@H](CC(=O)O)NC(=O)[C@H](Cc2ccc(OCC(=O)O)cc2)NC(=O)[C@H](CN)NC(=O)CSC[C@@H](C(=O)N[C@@H](C)C(N)=O)NC(=O)[C@H]([C@@H](C)O)NC(=O)[C@H](C(C)C)NC(=O)[C@H](CC2CCCCC2)NC(=O)[C@H](CCN)NC(=O)[C@@H](CC(C)C)NC(=O)[C@H](CCCN)NC1=O (stereo partly drawn) [Compound 2241],7.49

# The next lines start with the values.
row,pIC50,SMILES
1,6.86,CC(C)C[C@H]1NC(=O)[C@H](CCCN)NC(=O)[C@H](CCC(=O)O)NC(=O)[C@H](Cc2ccc(-c3ccccc3)cc2)NC(=O)[C@H](C(C)C)NC(=O)[C@H](Cc2c[nH]c3ccc(C#N)cc23)NC(=O)[C@H](CC(=O)O)NC(=O)[C@H](Cc2ccc(OCC(=O)O)cc2)NC(=O)[C@H](CN)NC(=O)CSC[C@@H](C(=O)N[C@@H](C)C(N)=O)NC(=O)[C@H]([C@@H](C)O)NC(=O)[C@H](C(C)C)NC(=O)[C@H](CC2CCCCC2)NC(=O)[C@H](CCN)NC1=O [Compound 2143]
2,6.96,CCCCCCCC[C@@H]1NC(=O)[C@H](CCN)NC(=O)[C@@H](CC(C)C)NC(=O)[C@H](CCCN)NC(=O)[C@H](CCCNC(N)=O)NC(=O)[C@H](Cc2ccc(-c3ccccc3)cc2)NC(=O)[C@H](C(C)C)NC(=O)[C@H](Cc2c[nH]c3ccccc23)NC(=O)[C@H](CC(=O)O)NC(=O)[C@H](Cc2ccc(OCC(=O)O)cc2)NC(=O)[C@H](CN)NC(=O)CSC[C@@H](C(=O)N[C@@H](C)C(N)=O)NC(=O)[C@H]([C@@H](C)O)NC(=O)[C@H](C(C)C)NC1=O [Compound 1352] ({CH2CO}-[Dap]Y(Carboxymethyl)DWV[Bip][Cit][Orn][dL][Dab][Gly(octyl)]VTCA-NH2; thioether N-14)
3,7.97,CC(C)C[C@H]1NC(=O)[C@H](CCCN)NC(=O)[C@H](CCCNC(N)=O)NC(=O)[C@H](Cc2ccc(-c3ccccc3)cc2)NC(=O)[C@H](C(C)C)NC(=O)[C@H](Cc2c[nH]c3ccccc23)NC(=O)[C@H](CC(=O)O)NC(=O)[C@H](Cc2ccc(O)cc2)NC(=O)[C@H](CN)NC(=O)CSC[C@@H](C(=O)N[C@@H](C)C(N)=O)NC(=O)[C@H]([C@@H](C)O)NC(=O)[C@H](C(C)C)NC(=O)[C@H](CC2CCCCC2)NC(=O)[C@H](CCN)NC1=O [Compound 1157]
4,7.83,CC(C)C[C@H]1NC(=O)[C@H](CCCN)NC(=O)[C@H](CCCNC(N)=O)NC(=O)[C@H](Cc2ccc(-c3ccccc3)cc2)NC(=O)[C@H](C(C)C)NC(=O)[C@H](Cc2c[nH]c3ccccc23)NC(=O)[C@H](CC(=O)O)NC(=O)[C@H](Cc2ccc(O)c([N+](=O)[O-])c2)NC(=O)[C@H](CN)NC(=O)CSC[C@@H](C(=O)N[C@@H](C)C(N)=O)NC(=O)[C@H]([C@@H](C)O)NC(=O)[C@H](C(C)C)NC(=O)[C@H](CC2CCCCC2)NC(=O)[C@H](CCN)NC1=O [Compound 2113]
5,7.72,CC(C)C[C@H]1NC(=O)[C@H](CCCN)NC(=O)[C@H](CCC(=O)O)NC(=O)[C@H](Cc2ccc(-c3ccccc3)cc2)NC(=O)[C@H](C(C)C)NC(=O)[C@H](Cc2c[nH]c3ccccc23)NC(=O)[C@H](CC(=O)O)NC(=O)[C@H](Cc2cccnc2)NC(=O)[C@H](Cc2ccccc2)NC(=O)CSC[C@@H](C(=O)N[C@@H](C)C(N)=O)NC(=O)[C@H]([C@@H](C)O)NC(=O)[C@H](C(C)C)NC(=O)[C@H](CC2CCCCC2)NC(=O)[C@H](CCN)NC1=O [Compound 2171] ({CH2CO}-F[3Pal]DWV[Bip]E[Orn][dL][Dab][Cha]VTCA-NH2; thioether N-14)
6,7.68,CC(C)C[C@H]1NC(=O)[C@H](CCCN)NC(=O)[C@H](CCC(=O)O)NC(=O)[C@H](Cc2ccc(-c3ccccc3)cc2)NC(=O)[C@H](C(C)C)NC(=O)[C@H](Cc2c[nH]c3ccccc23)NC(=O)[C@H](CC(=O)O)NC(=O)[C@H](Cc2ccc(OCC(=O)O)cc2)NC(=O)[C@H](CN)NC(=O)CSC[C@@H](C(=O)N[C@@H](C)C(N)=O)NC(=O)[C@H]([C@@H](C)O)NC(=O)[C@H](C(C)C)NC(=O)[C@H](Cc2cccc(F)c2)NC(=O)[C@H](CCN)NC1=O [Compound 1677] ({CH2CO}-[Dap]Y(Carboxymethyl)DWV[Bip]E[Orn][dL][Dab][Phe(3-F)]VTCA-NH2; thioether N-14)

# Same assay, conditions: read-out: Jurkat HPD1_PDL1 IC50; Jurkat-PD-1 cells, PE-labeled PD-L1-Ig 20 nM final
row,SMILES,pIC50
1,CCC(C)[C@@H]1NC(=O)[C@H](CC2CCCCC2)NC(=O)[C@H](CCN)NC(=O)[C@@H](CC(C)C)NC(=O)[C@H](CCCN)NC(=O)[C@H](C(C)CC)NC(=O)[C@H](Cc2ccc(-c3ccccc3)cc2)NC(=O)[C@H](C(C)CC)NC(=O)[C@H](Cc2c[nH]c3ccccc23)NC(=O)[C@H](CC(=O)O)NC(=O)[C@H](Cc2ccc(OCC(=O)O)cc2)NC(=O)[C@H](C(C)O)NC(=O)CSC[C@@H](C(=O)N(C)CC(N)=O)NC(=O)[C@H](CO)NC1=O (stereo partly drawn) [Compound 2584] ({CH2CO}-[Thr(3ξ)]Y(Carboxymethyl)DW[Ile(3ξ)][Bip][Ile(3ξ)][Orn][dL][Dab][Cha][Ile(3ξ)]SC[Sar]-NH2; thioether N-14),7.01
